Converted amounts (≈) assume the structure as drawn.
Key:
Assay in all cases: Standard agar-dilution assay, MIC
Format in all cases: cell-based
[1] = test system: Streptococcus pneumoniae Park I
Protocol: (§1) The minimal inhibitory concentrations (MIC's) at which the tylosin derivative (formula 1 compound wherein [drawing 11] and R^3 =mycarosyloxy) inhibits certain bacteria are given in Table II. The MIC's in Table II were determined by standard agar-dilution assays.

[2] = test system: Staphylococcus aureus X1.1
Protocol: as §1

Escherichia coli EC14 = test system: Escherichia coli EC14
Protocol: as §1

[3] = test system: Staphylococcus epidermidis EPI1
Protocol: as §1

[4] = test system: Streptococcus Group D X66
Protocol: as §1

[5] = test system: Staphylococcus aureus S13E
Protocol: as §1

[6] = test system: Streptococcus Group D 9960; details: GROUPD9960
Protocol: as §1

[7] = test system: Staphylococcus epidermidis EPI2
Protocol: as §1

Escherichia coli N10 = test system: Escherichia coli N10
Protocol: as §1

[8] = test system: Streptococcus pyogenes C203
Protocol: as §1

Escherichia coli TEM = test system: Escherichia coli TEM
Protocol: as §1

[9] = test system: Haemophilus influenzae 76; details: Haemophilus influenzae 76, ampicillin-resistant strain
Protocol: as §1

[10] = test system: Staphylococcus aureus V41; details: Staphylococcus aureus V41, penicillin-resistant strain
Protocol: as §1

[11] = test system: Haemophilus influenzae C.L.; details: ampicillin-sensitive strain
Protocol: as §1

[12] = test system: Staphylococcus aureus X400
Protocol: as §1

CCC1OC(=O)CC(O)C(C)C(OC2OC(C)C(OC3CC(C)(O)C(O)C(C)O3)C(N(C)C)C2O)C2CC(O)C(C)(C2)C(=O)C=CC(C)=CC1COC1OC(C)C(O)C(OC)C1OC (stereo not drawn) [8,20-Cyclo-Tylosin, 8,20-Cyclo-tylosin]
MIC [1]: 2 µg/mL (≈ 2.18 µM)
MIC [2]: 1 µg/mL (≈ 1.09 µM)
MIC (Escherichia coli EC14): > 128 µg/mL
MIC [3]: 1 µg/mL (≈ 1.09 µM)
MIC [4]: 32 µg/mL (≈ 34.9 µM)
MIC [5]: 2 µg/mL (≈ 2.18 µM)
MIC [6]: 32 µg/mL (≈ 34.9 µM)
MIC [7]: 0.5 µg/mL (≈ 0.546 µM)
MIC (Escherichia coli N10): > 128 µg/mL
MIC [8]: 1 µg/mL (≈ 1.09 µM)
MIC (Escherichia coli TEM): > 128 µg/mL
MIC [9]: 128 µg/mL (≈ 140 µM)
MIC [10]: 2 µg/mL (≈ 2.18 µM)
MIC [11]: 128 µg/mL (≈ 140 µM)
MIC [12]: 2 µg/mL (≈ 2.18 µM)
